Measured values reported in patent publication US5055396A, “Diagnostic methods and systems for quantifying APO AI” (Scripps Clinic and Research Foundation, priority 1987, dated 1991).

Tested on: MAB AI-18
Test: Competitive RIA: inhibition of MAB AI-18 binding to solid-phase Apo AI/HDL by competitor antigen or peptide
Parameters: species or system mouse
Conditions: for ability of the peptide to immunologically mimic a native conserved epitope of Apo AI: FIG. 5, proline 99 deleted or substituted by glycine; for Immunoreactivity (concentration of peptide competitor required to achieve a B/Bo value of 0.5): competitive RIA, MAB AI-18 ascites 1:1.25×10^5, solid-phase Apo AI/HDL; for immunoreactivity values (in words): higher value represents a lower affinity; for expression of the epitope recognized by MAB AI-18 after NaOH treatment: NaOH treated Apo AI/HDL, 18 hours at about 20 degrees C; for B/Bo: background-adjusted
Procedure: One hundred ul of PBS (0.15M NaCl, 0.01M NaPO4, pH 7.2) containing 10 ug/ml Apo AI/HDL were admixed to the wells of microtiter plates. The plates were maintained for 1 hour at 20 degrees C. on a rotating platform to allow the Apo AI/HDL to adhere to the wells and form solid supports. After aspirating excess liquid from the wells, 200 ul of block solution (3% BSA, 3% NGS in PBS) was admixed to each well, and the wells were maintained for 30 minutes at 20 degrees C. on a rotating platform. Subsequently, the blocking solution was removed by aspiration and the wells were washed 3 times with SPRIA buffer.
In control wells either competing antigen or antibody was replaced by PBS containing 3% BSA.
The immunoreaction admixtures were maintained about 16 hours at 4 degrees C. on a rotating platform to permit formation of solid-phase immunoreaction products. […] The labeling immunoreaction admixtures so formed were maintained for 4 hours at 4 degrees C. on a rotating platform.
[…] of serial 3 fold dilutions of each sample prepared in Table 3 were admixed as competitor in the RIA described in this Example.
Fifty microliters of the stock of 2 fold serial dilutions of the stock were used as competitor in the RIA described in this Example.

Row | Substance | Immunoreactivity (concentration of peptide competitor required to achieve a B/Bo value of 0.5) | immunoreactivity values (in words) | expression of the epitope recognized by MAB AI-18 after NaOH treatment | CPM of 125I-labeled solid phase immunoreaction product (competitor dilution 1:3) [CPM] | B/Bo (competitor dilution 1:3) | CPM of 125I-labeled solid phase immunoreaction product (competitor dilution 1:9) [CPM] | B/Bo (competitor dilution 1:9) | CPM of 125I-labeled solid phase immunoreaction product (competitor dilution 1:27) [CPM] | B/Bo (competitor dilution 1:27) | CPM of 125I-labeled solid phase immunoreaction product (competitor dilution 1:81) [CPM] | B/Bo (competitor dilution 1:81) | CPM of 125I-labeled solid phase immunoreaction product (competitor dilution 1:243) [CPM] | B/Bo (competitor dilution 1:243) | CPM of 125I-labeled solid phase immunoreaction product (competitor dilution 1:729) [CPM] | B/Bo (competitor dilution 1:729) | CPM of 125I-labeled solid phase immunoreaction product (competitor dilution Neat) [CPM] | B/Bo (competitor dilution Neat) | slope of logit transformed competition data (competitor HDL or fresh plasma, FIG. 2) | ability of the peptide to immunologically mimic a native conserved epitope of Apo AI
1 | AKVQGYLDDFQ [AI95-105 (G/P)] | > 10,000 ug protein/ml |  |  |  |  |  |  |  |  |  |  |  |  |  |  |  |  |  | substantially decreases the ability of the peptide to immunologically mimic a native conserved epitope
2 | LDDFQKKWQEE [AI101-111] | > 10,000 ug protein/ml | high immunoreactivity values |  |  |  |  |  |  |  |  |  |  |  |  |  |  |  |  | 
3 | B: NaOH treated Apo AI/HDL, 5 ul 0.01N NaOH, pH 6.34 |  |  | stable to NaOH treatments | 2852 | 0.341 | 4399 | 0.540 | 6195 | 0.771 | 6988 | 0.872 | 7483 | 0.936 | 7406 | 0.926 | 1110 | 0.118 |  | 
4 | AKVQYLDDFQ [AI95-105 (-P)] | > 10,000 ug protein/ml |  |  |  |  |  |  |  |  |  |  |  |  |  |  |  |  |  | substantially decreases the ability of the peptide to immunologically mimic a native conserved epitope
5 | VKAKVQPYL [AI93-101] | > 10,000 ug protein/ml | high immunoreactivity values |  |  |  |  |  |  |  |  |  |  |  |  |  |  |  |  | 
6 | YLDDFQ (UniProt P02647 124-129, looked up, fragment) [AI100-105] | > 10,000 ug protein/ml | high immunoreactivity values |  |  |  |  |  |  |  |  |  |  |  |  |  |  |  |  | 
7 | SKDLEEVKAKVQPYL [AI87-101] | 8,400 ug protein/ml | high immunoreactivity values |  |  |  |  |  |  |  |  |  |  |  |  |  |  |  |  | 
8 | SKDLEEVKAKVQPYLDDFQ [AI87-105] | 10 ug protein/ml |  |  |  |  |  |  |  |  |  |  |  |  |  |  |  |  |  | 
9 | QKKWQEEMELYR [AI105-116] | > 10,000 ug protein/ml | high immunoreactivity values |  |  |  |  |  |  |  |  |  |  |  |  |  |  |  |  | 
10 | KVQPYL (UniProt P02647 120-125, looked up, fragment) [AI96-101] | > 10,000 ug protein/ml |  |  |  |  |  |  |  |  |  |  |  |  |  |  |  |  |  | 
11 | LEEVKAKVQPYLDDFQKKWQEE [AI90-111] | 9 ug protein/ml |  |  |  |  |  |  |  |  |  |  |  |  |  |  |  |  |  | 
12 | AKVQPYLDDFQ [AI95-105] | 45 ug protein/ml |  |  |  |  |  |  |  |  |  |  |  |  |  |  |  |  |  | 

Now from value to substance, other results behind:

Row | Immunoreactivity (concentration of peptide competitor required to achieve a B/Bo value of 0.5) | immunoreactivity values (in words) | expression of the epitope recognized by MAB AI-18 after NaOH treatment | CPM of 125I-labeled solid phase immunoreaction product (competitor dilution 1:3) [CPM] | B/Bo (competitor dilution 1:3) | CPM of 125I-labeled solid phase immunoreaction product (competitor dilution 1:9) [CPM] | B/Bo (competitor dilution 1:9) | CPM of 125I-labeled solid phase immunoreaction product (competitor dilution 1:27) [CPM] | B/Bo (competitor dilution 1:27) | CPM of 125I-labeled solid phase immunoreaction product (competitor dilution 1:81) [CPM] | B/Bo (competitor dilution 1:81) | CPM of 125I-labeled solid phase immunoreaction product (competitor dilution 1:243) [CPM] | B/Bo (competitor dilution 1:243) | CPM of 125I-labeled solid phase immunoreaction product (competitor dilution 1:729) [CPM] | B/Bo (competitor dilution 1:729) | CPM of 125I-labeled solid phase immunoreaction product (competitor dilution Neat) [CPM] | B/Bo (competitor dilution Neat) | slope of logit transformed competition data (competitor HDL or fresh plasma, FIG. 2) | Substance | ability of the peptide to immunologically mimic a native conserved epitope of Apo AI
13 |  |  |  | 2542 | 0.301 | 4799 | 0.527 | 5786 | 0.718 | 6745 | 0.841 | 7270 | 0.090 | 7255 | 0.907 | 965 | 0.099 |  | Sample A: Apo AI/HDL, no NaOH treatment control, pH 6.26 [reference compound] | 
14 |  |  |  | 2348 | 0.277 | 3778 | 0.460 | 5057 | 0.624 | 5868 | 0.729 | 6380 | 0.794 | 6679 | 0.833 | 1152 | 0.123 | -2.03 | Apo AI/HDL: Apo AI when it is present on HDL particles [reference compound] | 
15 |  |  | decrease in expression of the epitope | 1174 | 0.126 | 2746 | 0.328 | 3854 | 0.470 | 5220 | 0.645 | 6385 | 0.795 | 6917 | 0.863 | 589 | 0.051 |  | D: NaOH treated Apo AI/HDL, 5 ul 1N NaOH, pH 10.67 | 
16 |  |  | decrease in expression of the epitope | 553 | 0.046 | 881 | 0.088 | 1543 | 0.173 | 2283 | 0.268 | 3338 | 0.404 | 4918 | 0.607 | 263 | 0.009 |  | E: NaOH treated Apo AI/HDL, 15 ul 1N NaOH, pH 11.33 | 
17 |  |  | decrease in expression of the epitope | 185 | -.001 | 281 | 0.011 | 342 | 0.019 | 516 | 0.041 | 744 | 0.071 | 1295 | 0.141 | 222 | 0.004 |  | F: NaOH treated Apo AI/HDL, 50 ul 1N NaOH, pH 11.86 | 
18 |  |  | stable to NaOH treatments | 2479 | 0.293 | 4502 | 0.553 | 6005 | 0.746 | 6618 | 0.825 | 7277 | 0.909 | 7485 | 0.936 | 1070 | 0.112 |  | C: NaOH treated Apo AI/HDL, 50 ul 0.01N NaOH, pH 7.04 | 
